Tests used:
pKa measurement = assay type: physicochemical
Solubility = assay type: physicochemical; details: unit inferred
[1] = test system: wild type P. aeruginosa (PAO1; K2732); assay: Bacterial cytological profiling at pH 4, 5.5, 7 (Example 8), P. aeruginosa; assay type: cell-based
Procedure: This bacterial cytological profiling (BCP) investigation uses methods and materials described previously by Nonejuie, P., Burkart, M., Poglianoa, K., Pogiano, J. (2013). Bacterial cytological profiling rapidly identifies the cellular pathways targeted by antibacterial molecules. Proc. Natl. Acad. Sci. U.S.A. 110(40):16169-16174. doi: 10.1073/pnas.1311066110.
For viable cell counts, cells are grown to OD600≈0.4 and diluted 1:1 into buffered or unbuffered media containing various compound concentrations. Samples are then collected and serially diluted (1:10) on a 96 well plate. Five microliters from each well are spotted on LB plates, incubated at 30° C., and viable cells are counted the next day.
Samples are collected at 10, 30, 120, and 240 min of exposure for viable cell count and imaging. For imaging, E. coli and S. aureus 200 μL of treated cells per time point are stained with 0.8 μg/mL FM4-64, 1.5 μg/mL DAPI, and 0.4 μM SYTOXGreen (Molecular Probes/Invitrogen). P. aeruginosa samples are stained 0.4 μM SYTOX Green, 28 μg/mL DAN, and 1 μg/mL FM 4-64. Cells are transferred to an agarose pad (20% LB, 1% agarose) for imaging.
For Nu-3 and Nu-8 stocks (at pH 4, 5.5 and 7), stock concentration is 500 mg/mL. For pH 4, the stocks are prepared by dissolving Nu-3 in 25 mM citrate buffer and Nu-8 in 350 mM citric acid. For pH 5.5, the stocks are prepared by dissolving Nu-3 in 25 mM citric-phosphate and Nu-8 in 25 mM critic. For pH 7, the stocks are prepared by dissolving Nu-3 and Nu-8 in 25 mM Sorensen phosphate buffer. 2×LB (lysogeny broth) solutions are prepared with 50 mM citrate buffer for pH 4, 50 mM citrate-phosphate buffer for pH 5.5, and 50 mM Sorensen phosphate buffer for pH 7.

SMILES: CCCCOP(=O)(O)OC[C@H]1O[C@@H](n2ccc(N)nc2=O)C[C@@H]1OP(=O)(O)OCCCC [Nu-8, sodium ((2R,3S,5R)-5-(4-amino-2-oxopyrimidin-1(2H)-yl)-3-((butoxyoxidophosphor-yl)oxy)tetrahydrofuran-2-yl)methyl butyl phosphate]
- pKa (pKa measurement): 3.2
- solubility (Solubility): 137 mg/mL
- cell growth ([1]; pH 5.5 and 7, 112.5 mg/mL): reduction in cell growth
- increase/change in cell permeability ([1]; pH 5.5 and 7, 112.5 mg/mL): < 20%
- cell permeability ([1]; pH 7, 225 mg/mL, 10 min): ~37%
